For the first test, the target named is T1, Plasminogen activator inhibitor 1 (Homo sapiens, UniProt P05121). The experiment in a line: Inhibition of human PAI1.
T1 sequence (P05121 whole entry): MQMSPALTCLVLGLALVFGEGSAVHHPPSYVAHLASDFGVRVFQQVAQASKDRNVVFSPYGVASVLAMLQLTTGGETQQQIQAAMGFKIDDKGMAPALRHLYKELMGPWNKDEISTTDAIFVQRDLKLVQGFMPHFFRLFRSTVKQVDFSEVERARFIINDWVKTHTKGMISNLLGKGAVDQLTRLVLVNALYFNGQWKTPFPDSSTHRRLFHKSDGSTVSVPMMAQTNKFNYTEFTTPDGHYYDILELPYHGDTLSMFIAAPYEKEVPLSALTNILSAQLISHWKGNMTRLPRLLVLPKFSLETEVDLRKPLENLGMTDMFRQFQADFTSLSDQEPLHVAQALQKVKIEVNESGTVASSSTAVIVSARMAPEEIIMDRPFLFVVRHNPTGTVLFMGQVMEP
The molecule `O=C(O)COc1cccc(/C=C2\NC(=O)C(c3ccccc3)=C2c2ccccc2)c1` displayed a half-maximal inhibitory concentration (IC50) of 9600 nM.

In turn, `N#C/C=C/c1ccc(/C=C2\NC(=O)C(c3ccccc3)=C2c2ccco2)o1` yielded an IC50 of 1200 nM.

In turn, `COc1ccc(C2=C(c3cccs3)/C(=C/c3ccc(/C=C/C(=O)O)o3)NC2=O)cc1OC` displayed an IC50 of 690 nM.

On to `O=C(O)/C=C/c1ccc(/C=C2\NC(=O)C(c3ccccc3)=C2c2ccco2)o1`, for which the IC50 came to 1500 nM.

Turning to `COc1ccc(C2=C(c3ccco3)/C(=C/c3ccc(/C=C/C(=O)O)o3)NC2=O)cc1OC`, the IC50 came to 1100 nM. The IC50 values of the last two molecules are within 1.5-fold of each other.

For `COc1ccc(C2=C(c3ccco3)/C(=C/c3ccncc3)NC2=O)cc1OC`, 7800 nM corresponded to half-maximal inhibition (IC50).

`COc1ccccc1C1=C(c2ccccc2)C(=O)N/C1=C\c1ccc(C)o1` yielded an IC50 of 940 nM.

`COc1ccccc1C1=C(c2ccccc2)C(=O)N/C1=C\c1ccc(/C=C/C(=O)O)o1` came in with a half-inhibitory concentration (IC50) of 650 nM.

In a further test the target is T1, Plasminogen activator inhibitor 1. The experiment in a line: Inhibition of human PAI1 at 10 uM.
With `O=C1N/C(=C\c2ccco2)C(c2ccco2)=C1c1ccccc1`, the inhibition amounted to 36%.

The target is the same in the next test. The experiment in a line: Inhibition of human PAI1 at 15 uM.
Consider `O=C1N/C(=C\c2ccc(C(=O)O)o2)C(c2ccco2)=C1c1ccccc1`, for which the inhibition is 34%.

For the origin of these results see ChEMBL document CHEMBL1153206, “Evaluation of pyrrolin-2-one derivatives synthesized by a new practical method as inhibitors of plasminogen activator inhibitor-1 (PAI-1)” (Bioorg Med Chem Lett, 2010).
